Test results published in patent US20080103086A1, “METHODS FOR THE TREATMENT OF DISEASES ASSOCIATED WITH THE SECRETION OF HMGB1” (priority 2006, published 2008).

Tests used:
[1] = tested on: HMGB1; test: HMGB1 relocation from nucleus to cytoplasm in RAW 264.7 cells (fraction Western blot, immunofluorescence); assay type: cell-based, Murine; conditions: OA 100 nM for 8 h, TNF-α 20 ng/mL for 16 h
Protocol: (A) RAW 264.7 cells were treated with TNF-α (20 ng/mL for 16 h) or OA (100 nM for 8 h). The nuclear (Nu) and cytoplasmic (Cyt) proteins were separated and blotted with anti-HMGB1. (B) Metabolic [^32P] labeling of HMGB1 in RAW 264.7 cells. RAW 264.7 cells were metabolically labeled with [^32P]orthophosphate for 4 h, and stimulated with OA (100 nM), TNF-α (20 ng/mL) and LPS (100 ng/mL) for 2 or 8 h. WCLs were immunoprecipitated with rabbit anti-HMGB1 from two different vendors of BD PharMingen (BD) and Upstate Biotechnology (UP). The proteins were resolved and transferred to nitrocellulose membrane and visualized by autoradiography. (C) RAW 264.7 cells were treated with TNF-α, and WCLs were immunoprecipitated with anti-pSer, anti-pTyr, and anti-pThr and blotted with anti-HMGB1. WCL was loaded as an HMGB1 control (lane 1). Anti-pAKT was used for a control antibody (lane 3). […]
To analyze the secretion of HMGB1 in the supernatants, culture media were replaced with serum-free OPTI-MEM (Gibco BRL) medium and concentrated with Amicon Centricon filtration (Millipore) after removing cell debris, and Western blot analysis was performed. […] The cells were lysed using 1% Nonidet P-40 buffer containing a protease inhibitor cocktail (Sigma), and the protein concentrations were measured by Bradford assay (Biorad) for the analysis of whole cell lysates (WCLs). […]

[2] = tested on: HMGB1 phosphorylation; test: Metabolic [32P] labeling / immunoprecipitation of HMGB1 phosphorylation in RAW 264.7 cells; assay type: cell-based, Murine
Protocol: (A) RAW 264.7 cells were treated with TNF-α (20 ng/mL for 16 h) or OA (100 nM for 8 h). The nuclear (Nu) and cytoplasmic (Cyt) proteins were separated and blotted with anti-HMGB1. (B) Metabolic [^32P] labeling of HMGB1 in RAW 264.7 cells. RAW 264.7 cells were metabolically labeled with [^32P]orthophosphate for 4 h, and stimulated with OA (100 nM), TNF-α (20 ng/mL) and LPS (100 ng/mL) for 2 or 8 h. WCLs were immunoprecipitated with rabbit anti-HMGB1 from two different vendors of BD PharMingen (BD) and Upstate Biotechnology (UP). The proteins were resolved and transferred to nitrocellulose membrane and visualized by autoradiography. (C) RAW 264.7 cells were treated with TNF-α, and WCLs were immunoprecipitated with anti-pSer, anti-pTyr, and anti-pThr and blotted with anti-HMGB1. WCL was loaded as an HMGB1 control (lane 1). Anti-pAKT was used for a control antibody (lane 3). (D) RAW 264.7 cells were treated with TNF-α for the indicated time. WCLs were immunoprecipitated with anti-HMGB1, blotted with anti-pSer and reblotted with anti-HMGB1. The same culture supernatants were concentrated, separated, and blotted with anti-HMGB1.
To identify the phosphorylated residues of the HMGB1 protein, TNF-α-treated RAW 264.7 cells were lysed with a protease inhibitor cocktail. Cell homogenates were centrifuged at 20,000 g for 15 min and precleared by incubation with protein G-Sepharose (Amersham) at 4° C. for 30 min. The precleared extracts (500 μg) were incubated with rabbit polyclonal anti-pSer, anti-pTyr and anti-pThr (all from Chemicon) and then protein G-Sepharose was added and incubated for 3 h at 4° C. […]
RAW 264.7 cells were cultured in phosphate starved condition of phosphate-free DMEM containing 10% dialyzed FBS (Gibco BRL) for 4 h and further incubated for 4 h by adding 600 μCi of [^32P]orthophosphate (Amersham Pharmacia Biotech) per mL to each dish. […] The concentration of total soluble proteins in the supernatant was quantified using the Bradford reagent (Bio-Rad). […] The gels were dried and the radioactivity was analyzed by autoradiography.

[3] = tested on: HMGB1-GFP; test: HMGB1-GFP imaging in transfected RAW 264.7 cells; assay type: cell-based, Murine; conditions: OA 100 nM 4 h, TSA 10 ng/mL 2 h, TNF-α 20 ng/mL 16 h
Protocol: RAW 264.7 cells (A) and human PBMo cells (B) were treated with OA (100 nM for 8 h), and immunofluorescent staining was performed to observe the HMGB1. TNF-α (20 ng/mL for 16 h) was used as a positive control cytokine. […] (C) Western blot analysis of HMGB1 protein in the culture supernatants of PBMo cells, which were from (B). (D) HMGB1 in the nucleus is transported to the cytoplasm by phosphorylation. RAW 264.7 cells were transfected with a wild type HMGB1-GFP plasmid and cultured for 24 h. And then the cells were treated with 2 μg/mL CHX for 1 h followed by OA treatment for 4 h or by TSA treatment for 2 h and green fluorescent images were observed. Bar: 10 μm.
FIGS. 6A-6E show Mutation of HMGB1 NLS sites alters subcellular distribution of HMGB1. (A) RAW 264.7 cells were transfected with wild-type and each mutant HMGB1-GFP plasmid and immunofluorescent assays were performed 24 h later without any treatment. (B, C, and D) OA (100 nM for 4 h), TSA (10 ng/mL for 2 h), and TNF-α (20 ng/mL for 16 h) were applied 24 h after transfection to observe the effect on HMGB1 nuclear export by phosphorylation, acetylation, or both. […] (E) Secretion of wild-type and each mutant HMGB1-GFP was tested 24 h after transfection by Western blotting. The culture supernatants were concentrated and blotted with anti-GFP. Bar: 10 μm. […]

[4] = tested on: HMGB1 binding to KAP-α1; test: GST-KAP-α1 pull-down of HMGB1 from treated RAW 264.7 cell lysates; conditions: GST-KAP-α1 on glutathione-Sepharose beads; WCLs of treated RAW 264.7 cells
Protocol: FIGS. 4A-4C show the binding of HMGB1 to nuclear import proteins. (A) GST-KAP-α1, -2, -3, -4, -5, -6, and -β1 fusion proteins immobilized on glutathione-Sepharose 4B beads were incubated with WCLs of RAW 264.7 cells overnight at 4° C. Sepharose-bound proteins were separated and the membrane was blotted with anti-HMGB1 and reblotted with anti-GST. WCL was loaded as an HMGB1 control (lane 1), and GST protein was used as a negative control (lane 2). (B) Six His-tagged wild type HMGB1 and boxes A (aa 1-87) and B (aa 88-162) HMGB1 proteins were purified from E. coli BL21 and identified at expected size by Coomassie blue staining. HMGB1 and GST-KAP-α1 was incubated for 2 h at 4° C., and the precipitate was blotted with anti-His for HMGB1 and reblotted with anti-GST for KAP-α1. (C) GST-KAP-α1, immobilized on glutathione-Sepharose beads, was incubated with WCLs of RAW 264.7 cells which were treated with OA, TSA, or TNF-α. The precipitates were blotted with anti-HMGB1 and reblotted with anti-GST.
Two μg of each GST-KAP protein was coupled to glutathione sepharose 4B beads and incubated with 500 μg of WCL from RAW 264.7 cells as a HMGB1 source at 4° C. overnight. […]

| Molecule | HMGB1 in the cytoplasm (nuclear/cytoplasmic fractions, Western blot) [1] | level of phosphorylated (p-) HMGB1 (IP anti-HMGB1, blot anti-pSer) ([2]; RAW 264.7 cells treated with TNF-α for the indicated time) | phosphorylated amino acid residue of HMGB1 (IP anti-pSer, anti-pTyr, anti-pThr) ([2]; RAW 264.7 cells, 20 ng/mL TNF-α for 16 h) | HMGB1 phosphorylation ([32P]orthophosphate labeling, autoradiography) ([2]; RAW 264.7 cells, 100 nM OA, 20 ng/mL TNF-α, 100 ng/mL LPS, 2 or 8 h) | HMGB1-GFP (wild-type and mutants) relocation 24 h after transfection [3] | binding of HMGB1 from treated cell lysate to KAP-α1 [4] |
| --- | --- | --- | --- | --- | --- | --- |
| TNF-α | translocation of nuclear HMGB1 to the cytoplasm | increased by TNF-α in a time-dependent manner | Only serine residues of HMGB1 were phosphorylated | phosphorylated | The same results were observed | – |
| CC(/C=C/C(=O)NO)=C\[C@@H](C)C(=O)c1ccc(N(C)C)cc1 [TSA, trichostatin A] | – | – | – | – | the wild-type and all mutant HMGB1-GFPs showed cytoplasmic relocation | no binding to KAP-α1 |
